Data reported in patent US20230146455A1, “TREATMENT OF INFLAMMATORY DISEASES WITH PEPTIDES AND PHARMACEUTICAL COMPOSITIONS” (Yuyu Pharma, Inc., priority 2020, published 2023).
“And” between values parts separate entries of the source, which are not always exact repeats. Equal values may be shown once. Where a SMILES comes first, the peptide text is derived from it. [ ]: non-standard residue; d: D form. Hyp = O=C(O)[C@@H]1C[C@@H](O)CN1

System: human PBMCs
Assay: PBMC cell counts (total, live, viability; trypan blue, Countess) with and without LPS and test articles (Example 9)
Format: cell-based
Description: Treatment Human PBMCs were pretreated with YY-101, YDE-011 and YDE-043 or reference compound; Xiidra® at various concentration (ranging from 1 nM to 100 uM) for 2 h before stimulation. An equal volume of 0.5% DMSO was used as a vehicle control. Then, the cells were treated with LPS at 5 ug/ml. The supernatants from treated cells were harvested at 24 h and placed in a 96 well for Luminex cytokine & chemokine profiling using a Luminex 200 multiplex assay (Luminex; R&D system, USA).
The main study arm with triplicate wells per group in a 24-well plate: • 1. Blank • 2. PBMC: 0.5% DMSO • 3. PBMC+LPS (5 ug/ml) • 4. PBMC+YY-101 100 uM • 5. PBMC+YY-101 10 uM • 6. PBMC+YY-101 1 uM • 7. PBMC+YY-101 0.1 uM • 8. PBMC+YY-101 0.01 uM • 9. PBMC+LPS (5 ug/ml)+Xiidra®100 uM • 10. PBMC+LPS (5 ug/ml)+Xiidra® 10 uM • 11. PBMC+LPS (5 ug/ml)+Xiidra® 1 uM • 12. PBMC+LPS (5 ug/ml)+Xiidra®0.1 uM • 13. PBMC+LPS (5 ug/ml)+Xiidra®0.01 uM • 14. PBMC+LPS (5 ug/ml)+Xiidra®0.001 uM • 15. PBMC+LPS (5 ug/ml)+YY-101 100 uM • 16. PBMC+LPS (5 ug/ml)+YY-101 10 uM • 17. PBMC+LPS (5 ug/ml)+YY-101 1 uM • 18. PBMC+LPS (5 ug/ml)+YY-101 0.1 uM • 19. PBMC+LPS (5 ug/ml)+YY-101 0.01 uM • 20. PBMC+LPS (5 ug/ml)+YY-101 0.001 uM • 21. PBMC+LPS (5 ug/ml)+YDE-011 100 uM • 22. PBMC+LPS (5 ug/ml)+YDE-011 10 uM • 23. PBMC+LPS (5 ug/ml)+YDE-011 1 uM • 24. PBMC+LPS (5 ug/ml)+YDE-011 0.1 uM • 25. PBMC+LPS (5 ug/ml)+YDE-011 0.01 uM • 26. PBMC+LPS (5 ug/ml)+YDE-011 0.001 uM • 27. PBMC+LPS (5 ug/ml)+YDE-043 100 uM • 28. PBMC+LPS (5 ug/ml)+YDE-043 10 uM • 29. PBMC+LPS (5 ug/ml)+YDE-043 1 uM • 30. PBMC+LPS (5 ug/ml)+YDE-043 0.1 uM • 31. PBMC+LPS (5 ug/ml)+YDE-043 0.01 uM • 32. PBMC+LPS (5 ug/ml)+YDE-043 0.001 uM
The number of PBMCs was measured after 24 hr of treatment. The culture both and trypan blue were diluted 1:1 and 10 ul was added to Countess cell counting chamber (Thermo fisher, USA). The number of PBMCs was measured using a Countess automated cell counter (Thermo fisher, USA).

[1] = PBMC + LPS(5 ug/ml) + test article 100 uM, Mean
[2] = PBMC + LPS(5 ug/ml) + test article 100 uM, single replicates
[3] = PBMC + LPS(5 ug/ml), test article 0.001 uM, Mean
[4] = PBMC + LPS(5 ug/ml), test article 0.001 uM, single replicates
[5] = PBMC + LPS(5 ug/ml), test article 0.01 uM, Mean
[6] = PBMC + LPS(5 ug/ml), test article 0.01 uM, single replicates
[7] = PBMC + LPS(5 ug/ml), test article 0.1 uM, Mean
[8] = PBMC + LPS(5 ug/ml), test article 0.1 uM, single replicates
[9] = PBMC + LPS(5 ug/ml), test article 1 uM, Mean
[10] = PBMC + LPS(5 ug/ml), test article 1 uM, single replicates
[11] = PBMC + LPS(5 ug/ml), test article 10 uM, Mean
[12] = PBMC + LPS(5 ug/ml), test article 10 uM, single replicates
[13] = PBMC + LPS(5 ug/ml), test article 100 uM, Mean
[14] = PBMC + LPS(5 ug/ml), test article 100 uM, single replicates

## CC(C)C[C@H](NC(=O)CNC(=O)[C@H](CC(C)C)NC(=O)[C@H](CCC(N)=O)NC(=O)CNC(=O)[C@@H]1C[C@@H](O)CN1)C(=O)N[C@@H](C)C(=O)NCC(=O)N1CCC[C@H]1C(=O)N[C@@H](CCCCN)C(=O)O [YDE-011] (H-[Hyp]GQLGLAGPK-OH)
PBMC + LPS(5 ug/ml) + test article 10 uM, single replicates (1st, 2nd, 3rd)
  Live cell: 5.4 10^5/ml and 5.8 10^5/ml and 4.7 10^5/ml
[1]
  Live cell: 6.1 10^5/ml
  Live cell (10^5/ml): 6.1 10^5/ml
  Live cell, Mean: 6.1 10^5/ml
PBMC + LPS(5 ug/ml) + test article 100 uM, individual replicates
  Live cell: 6.1 10^5/ml (2×) and 6.0 10^5/ml
PBMC + LPS(5 ug/ml) + test article 100 uM, individual replicates (1st, 2nd, 3rd)
  Live cell: 6.1 10^5/ml (2×) and 6.0 10^5/ml
[2]
  Live cell: 6.1 10^5/ml (2×) and 6.0 10^5/ml
  Live cell (10^5/ml): 6.1 10^5/ml (2×) and 6.0 10^5/ml
PBMC + LPS(5 ug/ml) + test article 100 uM, single replicates (1st, 2nd, 3rd)
  Live cell: 6.1 10^5/ml (2×) and 6.0 10^5/ml
PBMC + LPS(5 ug/ml), 0.001 uM, Mean
  Live cell: 5.4 10^5/ml
PBMC + LPS(5 ug/ml), 0.001 uM, single replicates
  Live cell: 4.5 10^5/ml and 5.8 10^5/ml (2×)
PBMC + LPS(5 ug/ml), 0.01 uM, Mean
  Live cell: 5.9 10^5/ml
PBMC + LPS(5 ug/ml), 0.01 uM, single replicates
  Live cell: 6.2 10^5/ml and 5.1 10^5/ml and 6.3 10^5/ml
PBMC + LPS(5 ug/ml), 0.1 uM, Mean
  Live cell: 5.8 10^5/ml
PBMC + LPS(5 ug/ml), 0.1 uM, single replicates
  Live cell: 6.6 10^5/ml and 5.0 10^5/ml and 5.7 10^5/ml
PBMC + LPS(5 ug/ml), 1 uM, Mean
  Live cell: 5.0 10^5/ml
PBMC + LPS(5 ug/ml), 1 uM, single replicates
  Live cell: 5.5 10^5/ml and 4.8 10^5/ml (2×)
PBMC + LPS(5 ug/ml), 10 uM, Mean
  Live cell: 5.3 10^5/ml
PBMC + LPS(5 ug/ml), 10 uM, single replicates
  Live cell: 5.4 10^5/ml and 5.8 10^5/ml and 4.7 10^5/ml
PBMC + LPS(5 ug/ml), 100 uM, Mean
  Live cell: 6.1 10^5/ml
PBMC + LPS(5 ug/ml), 100 uM, single replicates
  Live cell: 6.1 10^5/ml (2×) and 6.0 10^5/ml
[3]
  Live cell: 5.4 10^5/ml
  Total cell count: 6.3 10^5/ml
[4]
  Live cell: 4.5 10^5/ml and 5.8 10^5/ml (2×)
  Total cell count: 5.9 10^5/ml and 6.3 10^5/ml and 6.6 10^5/ml
  Viability: 75.0% and 92.0% and 88.0%
[5]
  Live cell: 5.9 10^5/ml
  Total cell count: 7.3 10^5/ml
[6]
  Live cell: 6.3 10^5/ml and 6.2 10^5/ml and 5.1 10^5/ml
  Total cell count: 7.6 10^5/ml and 7.8 10^5/ml and 6.4 10^5/ml
  Viability: 79.0%
[7]
  Live cell: 5.8 10^5/ml
  Total cell count: 7.1 10^5/ml
[8]
  Live cell: 6.6 10^5/ml and 5.0 10^5/ml and 5.7 10^5/ml
  Total cell count: 7.8 10^5/ml and 5.7 10^5/ml and 7.7 10^5/ml
  Viability: 85.0% and 87.0% and 74.0%
[9]
  Live cell: 5.0 10^5/ml
  Total cell count: 6.4 10^5/ml
[10]
  Live cell: 5.5 10^5/ml and 4.8 10^5/ml
  Total cell count: 6.2 10^5/ml and 7.0 10^5/ml and 5.9 10^5/ml
  Viability: 89.0% and 69.0% and 81.0%
[11]
  Live cell: 5.3 10^5/ml
  Total cell count: 6.0 10^5/ml
[12]
  Live cell: 5.4 10^5/ml and 5.8 10^5/ml and 4.7 10^5/ml
  Total cell count: 5.9 10^5/ml and 6.7 10^5/ml and 5.4 10^5/ml
  Viability: 91.0% and 86.0% and 88.0%
[13]
  Live cell: 6.1 10^5/ml
  Total cell count: 8.2 10^5/ml
[14]
  Live cell: 6.1 10^5/ml (2×) and 6.0 10^5/ml
  Total cell count: 7.6 10^5/ml and 8.1 10^5/ml and 9.0 10^5/ml
  Viability: 81.0% and 75.0% and 67.0%
Up to 100 μM, 24-hour treatment
  which treatments consistently affected the total and live number of PBMCs or the percent viability (in words): none of
